The subject of the assay is primary human mesenchymal stem cells (hMSCs). The experiment in a line: Induction of chondrogenesis in human mesenchymal stem cells (nodule staining with Rhodamine B / Nile Red). In kind it is cell-based. The note with it: for Emax: TGF-β3 (10 ng/mL) as positive control, read-out: Max. Activity as % TGF-β3 activity; for EC50: concentration required to induce 50% levels of chondrogenesis vs TGF-β3, read-out: Conc (nM) of 50% TGF-β3 activity. Here is the method:
Representative compounds were screened using primary human mesenchymal stem cells (hMSCs) to determine their ability to induce chondrogenesis (process by which cartilage is developed).
Human Mesenchymal Stem Cell Culture: Primary human mesenchymal stem cells (hMSCs) were purchased from Lonza (Walkersville, Md.) and expanded in Mesenchymal Stem Cell Growth Media (Lonza). Cells between passage 3 and 6 were used for the experiments.
Compound Screening: Each compound was dissolved in DMSO as a 10 mM stock and used to prepare compound source plates. For the 96 well assay, serial dilution (1:3, 6-point dose-response curves from 2700 nM to 10 nM) and compound transfer was performed using the ECHO 550 (Labcyte, Sunnyvale, Calif.) into 96-well clear bottom assay plates (Greiner Bio-One) with appropriate DMSO backfill for a final DMSO concentration of 0.03%. hMSCs were plated at 20,000 cells/well in 250 μL/well Incomplete Chondrogenic Induction Medium (Lonza; DMEM, dexamethasone, ascorbate, insulin-transferrin-selenium [ITS supplement], gentamycin-amphotericin [GA-1000], sodium pyruvate, proline and L-glutamine). TGF-β3 (10 ng/mL) was used as a positive control for differentiation while negative control wells were treated with 75 nL DMSO for normalization and calculating EC50 values. For the 384 well assay, serial dilution (1:3, 8-point dose-response curves from 5000 nM to 2.2 nM) and compound transfer was performed using the ECHO 550 (Labcyte, Sunnyvale, Calif.) into 384-well clear bottom assay plates (Greiner Bio-One) with appropriate DMSO backfill for a final DMSO concentration of 0.03%. hMSCs were plated at 8,000 cells/well in 80 μL/well Incomplete Chondrogenic Induction Medium (Lonza; DMEM, dexamethasone, ascorbate, insulin-transferrin-selenium [ITS supplement], gentamycin-amphotericin [GA-1000], sodium pyruvate, proline and L-glutamine). TGF-β3 (10 ng/mL) was used as a positive control for differentiation while negative control wells were treated with 25 nL DMSO for normalization and calculating EC50 values. Cells were incubated at 37° C. and 5% CO2 for 6 days. To image chondrogenic nodules, the cells were fixed using 4% formaldehyde (Electron Microscopy Sciences), and stained with 2 μg/mL Rhodamine B (Sigma-Aldrich) and 20 μM Nile Red (Sigma-Aldrich) [Johnson K., et. al, A Stem Cell-Based Approach to Cartilage Repair, Science, (2012), 336(6082), 717-721]. The nodules imaged (25 images per well for 96 well plates and 9 images per well for 384 well plates at 10× magnification) by excitation at 531 nm and emission at 625 nm and quantified using the CellInsight CX5 (Thermo Scientific). Area of nodules in each well was normalized to the average of 3 DMSO treated wells on the same plate using Excel (Microsoft Inc.). The normalized averages (fold change over DMSO) of 2 or 3 replicate wells for each compound concentration were calculated. Due to solubility limitations of some of the compounds, curve fitting was incomplete leading to inaccurate EC50 determinations.
Using TGF-β3 as a positive control, the concentration of representative compounds required to induce 50% levels of chondrogenesis is reported. In addition, the maximum activity of each compound and the respective dose that each compound reached maximum chondrogenesis activity is reported.

`CC(C)(C)C(=O)Nc1cncc(-c2ccc3[nH]nc(-c4nc5c(-c6ccc(F)cc6)cccc5[nH]4)c3n2)c1` [Compound 36, N-(5-(3-(4-(4-Fluorophenyl)-1H-benzo[d]imidazol-2-yl)-1H-pyrazolo[4,3-b]pyridin-5-yl)pyridin-3-yl)pivalamide]: the Emax stood at 86% and the EC50 turned out to be 30 nM.
In the case of `Fc1ccc(-c2cccc3[nH]c(-c4n[nH]c5ccc(-c6cncc(CN7CCCC7)c6)nc45)nc23)cc1` [Compound 42, 3-(4-(4-Fluorophenyl)-1H-benzo[d]imidazol-2-yl)-5-(5-(pyrrolidin-1-ylmethyl)pyridin-3-yl)-1H-pyrazolo[4,3-b]pyridine], the Emax is 23%.
As for `O=C(Nc1cncc(-c2ccc3[nH]nc(-c4nc5c(-c6ccc(F)cc6)cccc5[nH]4)c3n2)c1)C1CCC1` [Compound 49, N-(5-(3-(4-(4-Fluorophenyl)-1H-benzo[d]imidazol-2-yl)-1H-pyrazolo[4,3-b]pyridin-5-yl)pyridin-3-yl)cyclobutanecarboxamide], the Emax stood at 69% and the EC50 is 30 nM.
`Fc1ccc(-c2cccc3[nH]c(-c4n[nH]c5ccc(-c6cncnc6)nc45)nc23)cc1` [Compound 55, 3-(4-(4-Fluorophenyl)-1H-benzo[d]imidazol-2-yl)-5-(pyrimidin-5-yl)-1H-pyrazolo[4,3-b]pyridine]: the Emax worked out at 96% and the EC50 came to 10 nM.
For `Nc1cncc(-c2ccc3[nH]nc(-c4nc5c(-c6ccccc6F)cccc5[nH]4)c3n2)c1` [Compound 59, 5-(3-(4-(2-Fluorophenyl)-1H-benzo[d]imidazol-2-yl)-1H-pyrazolo[4,3-b]pyridin-5-yl)pyridin-3-amine], in that order: 82% and 30 nM.
Consider `c1cncc(-c2ccc3[nH]nc(-c4nc5c(-c6cccnc6)cccc5[nH]4)c3n2)c1` [Compound 88, 5-(Pyridin-3-yl)-3-(4-(pyridin-3-yl)-1H-benzo[d]imidazol-2-yl)-1H-pyrazolo [4,3-b]pyridine], for which the Emax worked out at 58% and the EC50 was found to be 30 nM.
Consider `CC(C)C(=O)Nc1cncc(-c2ccc3[nH]nc(-c4nc5c(-c6cccnc6)cccc5[nH]4)c3n2)c1` [Compound 93, N-(5-(3-(4-(Pyridin-3-yl)-1H-benzo[d]imidazol-2-yl)-1H-pyrazolo[4,3-b]pyridin-5-yl)pyridin-3-yl)isobutyramide], for which the Emax turned out to be 36%.
In the case of `CC(C)Nc1cncc(-c2ccc3[nH]nc(-c4nc5c(-c6cccnc6)cccc5[nH]4)c3n2)c1` [Compound 96, N-Isopropyl-5-(3-(4-(pyridin-3-yl)-1H-benzo[d]imidazol-2-yl)-1H-pyrazolo [4,3-b]pyridin-5-yl)pyridin-3-amine], the Emax is 24%.
In the case of `Cc1ccncc1-c1ccc2[nH]nc(-c3nc4c(-c5ccncc5)cccc4[nH]3)c2n1` [Compound 117, 5-(4-Methylpyridin-3-yl)-3-(4-(pyridin-4-yl)-1H-benzo[d]imidazol-2-yl)-1H-pyrazolo[4,3-b]pyridine], the Emax is 45%.
`O=C(Cc1ccccc1)Nc1cncc(-c2ccc3[nH]nc(-c4nc5c(-c6ccncc6)cccc5[nH]4)c3n2)c1` [Compound 122, 2-Phenyl-N-(5-(3-(4-(pyridin-4-yl)-1H-benzo[d]imidazol-2-yl)-1H-pyrazolo [4,3-b]pyridin-5-yl)pyridin-3-yl)acetamide]: the Emax is 75% and the EC50 was determined as 300 nM.
On to `CCCC(=O)Nc1cncc(-c2ccc3[nH]nc(-c4nc5c(-c6ccncc6)cccc5[nH]4)c3n2)c1` [Compound 129, N-(5-(3-(4-(Pyridin-4-yl)-1H-benzo[d]imidazol-2-yl)-1H-pyrazolo[4,3-b]pyridin-5-yl)pyridin-3-yl)butyramide], for which the Emax stood at 59% and the EC50 was 2700 nM.
For the molecule `CCNCc1cncc(-c2ccc3[nH]nc(-c4nc5c(-c6ccccn6)cccc5[nH]4)c3n2)c1` [Compound 146, N-((5-(3-(4-(Pyridin-2-yl)-1H-benzo[d]imidazol-2-yl)-1H-pyrazolo[4,3-b]pyridin-5-yl)pyridin-3-yl)methyl)ethanamine], the Emax is 279% and the EC50 came out at 1670 nM.
Consider `CCC(=O)Nc1cncc(-c2ccc3[nH]nc(-c4nc5c(N6CCCCC6)cccc5[nH]4)c3n2)c1` [Compound 169, N-(5-(3-(4-(Piperidin-1-yl)-1H-benzo[d]imidazol-2-yl)-1H-pyrazolo[4,3-b]pyridin-5-yl)pyridin-3-yl)propionamide], for which the Emax was determined as 66% and the EC50 was 1670 nM.
As to `CN(C)Cc1cncc(-c2ccc3[nH]nc(-c4nc5c(N6CCCCC6)cccc5[nH]4)c3n2)c1` [Compound 181, N,N-dimethyl-1-(5-(3-(4-(piperidin-1-yl)-1H-benzo[d]imidazol-2-yl)-1H-pyrazolo[4,3-b]pyridin-5-yl)pyridin-3-yl)methanamine], the Emax was determined as 52% and the EC50 came out at 10 nM.
On to `CN1CCN(c2cccc3[nH]c(-c4n[nH]c5ccc(-c6cncc(N)c6)nc45)nc23)CC1` [Compound 227, 5-(3-(4-(4-Methylpiperazin-1-yl)-1H-benzo[d]imidazol-2-yl)-1H-pyrazolo [4,3-b]pyridin-5-yl)pyridin-3-amine], for which the Emax amounted to 50%.
Regarding `CC(C)C(=O)Nc1cncc(-c2ccc3[nH]nc(-c4nc5c(N6CCN(C)CC6)cccc5[nH]4)c3n2)c1` [Compound 233, N-(5-(3-(4-(4-Methylpiperazin-1-yl)-1H-benzo[d]imidazol-2-yl)-1H-pyrazolo[4,3-b]pyridin-5-yl)pyridin-3-yl)isobutyramide], the Emax is 52% and the EC50 worked out at 30 nM.
In the case of `O=C(Cc1ccccc1)Nc1cncc(-c2ccc3[nH]nc(-c4nc5ccccc5[nH]4)c3n2)c1` [Compound 262, N-(5-(3-(1H-Benzo[d]imidazol-2-yl)-1H-pyrazolo[4,3-b]pyridin-5-yl)pyridin-3-yl)-2-phenylacetamide], the Emax worked out at 37%.
Still for that read-out and setting: next, `Fc1cccc(-c2cccc3[nH]c(-c4n[nH]c5ccc(C6=CCNCC6)nc45)nc23)c1` [Compound 506, 3-(4-(3-Fluorophenyl)-1H-benzo[d]imidazol-2-yl)-5-(1,2,3,6-tetrahydropyridin-4-yl)-1H-pyrazolo[4,3-b]pyridine]: 42%.
With `Fc1cccc(-c2cccc3[nH]c(-c4n[nH]c5ccc(-c6cn[nH]c6)nc45)nc23)c1` [Compound 507, 3-(4-(3-Fluorophenyl)-1H-benzo[d]imidazol-2-yl)-5-(1H-pyrazol-4-yl)-1H-pyrazolo[4,3-b]pyridine], the Emax is 53%.
On to `Fc1cccc(-c2cccc3[nH]c(-c4n[nH]c5ccc(-c6cnccn6)nc45)nc23)c1` [Compound 520, 3-(4-(3-Fluorophenyl)-1H-benzo[d]imidazol-2-yl)-5-(pyrazin-2-yl)-1H-pyrazolo[4,3-b]pyridine], for which the Emax was found to be 64% and the EC50 was determined as 2 nM.
`CN(C)CCOc1cncc(-c2ccc3[nH]nc(-c4nc5c(-c6cccs6)cccc5[nH]4)c3n2)c1` [Compound 707, N,N-Dimethyl-2-((5-(3-(4-(thiophen-2-yl)-1H-benzo[d]imidazol-2-yl)-1H-pyrazolo[4,3-b]pyridin-5-yl)pyridin-3-yl)oxy)ethan-1-amine]: the Emax was 142% and the EC50 worked out at 10 nM.
On to `CN(C)CC(=O)Nc1cncc(-c2ccc3[nH]nc(-c4nc5c(-c6cccc(F)c6)cccc5[nH]4)c3n2)c1` [Compound 969, 2-(Dimethylamino)-N-(5-(3-(4-(3-fluorophenyl)-1H-benzo[d]imidazol-2-yl)-1H-pyrazolo[4,3-b]pyridin-5-yl)pyridin-3-yl)acetamide], for which the Emax worked out at 44%.
Take `COc1cccc(-c2cccc3[nH]c(-c4n[nH]c5ccc(-c6cccnc6)nc45)nc23)c1` [Compound 994, 3-(4-(3-Methoxyphenyl)-1H-benzo[d]imidazol-2-yl)-5-(pyridin-3-yl)-1H-pyrazolo[4,3-b]pyridine]: the Emax amounted to 70% and the EC50 came out at 100 nM.

Source of the values: patent US10392383B2, “3-(1H-benzo[d]imidazol-2-yl)-1H-pyrazolo[4,3-b]pyridines and therapeutic uses thereof” (Samumed, LLC, priority 2015, dated 2019).
